Source: EP1189688B1, “W/O TYPE EMULSIONS WITH A HIGH WATER CONTENT CONTAINING MEDIUM POLAR LIPIDS” (Beiersdorf AG, priority 1999, dated 2000)

Test: Interfacial tension of the lipid against water (measure of polarity)
Type: physicochemical
Conditions: lower value = more polar oil
Description: Öle und Fette unterscheiden sich unter anderem in ihrer Polarität, welche schwierig zu definieren ist. Es wurde bereits vorgeschlagen, die Grenzflächenspannung gegenüber Wasser als Maß für den Polaritätsindex eines Öls bzw. einer Ölphase anzunehmen. Dabei gilt, daß die Polarität der betreffenden Ölphase umso größer ist, je niedriger die Grenzflächenspannung zwischen dieser Ölphase und Wasser ist. Erfindungsgemäß wird die Grenzflächenspannung als ein mögliches Maß für die Polarität einer gegebenen Ölkomponente angesehen.
Die Grenzflächenspannung ist diejenige Kraft, die an einer gedachten, in der Grenzfläche zwischen zwei Phasen befindlichen Linie der Länge von einem Meter wirkt. Die physikalische Einheit für diese Grenzflächenspannung errechnet sich klassisch nach der Beziehung Kraft/Länge und wird gewöhnlich in mN/m (Millinewton geteilt durch Meter) wiedergegeben. Sie hat positives Vorzeichen, wenn sie das Bestreben hat, die Grenzfläche zu verkleinern. Im umgekehrten Falle hat sie negatives Vorzeichen.
Die nachfolgende Tabelle 1 führt mittelpolare Lipide auf, die die erfindungsgemäß sind. Die betreffenden Grenzflächenspannungen gegen Wasser sind in der letzten Spalte angegeben. Es ist jedoch auch vorteilhaft, Gemische aus höher- und niederpolaren und dergleichen zu verwenden, sofern gewährleistet ist, daß die Gesamtpolarität der Ölphase im beanspruchten Bereich liegt. Tabelle 1

Compound	Grenzflächenspannungen gegen Wasser
CCCCCCCCC(CO)CCCCCC (centres unmarked) [Isofol® 16, Hexyl Decanol]	24,3 mN/m
CCCCCCCC(=O)OCC(COC(=O)CCCCCCC)OC(=O)CCCCCCC [Trivent® OCG, Tricaprylin]	20,2 mN/m
CCCCCCCCCCC(CO)CCCCCCCC (centres unmarked) [Eutanol® G, Octyldodecanol]	24,8 mN/m
CCCCCCCCCCCCCCCCCC(=O)OCCCCCCCC [Cetiol® 868, Octyl Stearate]	28,4 mN/m
CCCCCCCCCCCCCC(=O)OCC(CCCCCCCC)CCCCCCCCCC (centres unmarked) [MOD, Octyldodeceyl Myristate]	22,1 mN/m
Octyl lsostearate [Prisorine® 2036]	29,7 mN/m
CCCCCCCCCCCCCCCCCCOC(=O)CCCCCC [Tegosoft® SH, Stearyl Heptanoate]	28,7 mN/m
CCCCCCCCCCCCCCCCCC(=O)OC(C)C [Isopropylstearat, Isopropyl Stearate]	21,9 mN/m
